# Patent publication US20150306081A1, “Chemotherapy for Drug-Resistant Cancer Cells” (THE UNIVERSITY OF SYDNEY, priority 2012, published 2015)
# Experiments:
# [1] = test system: Pgp expressing 2008/P200A cells; assay: MTT proliferation assay, 2008/P200A cells; assay type: cell-based
# Description: The 2008 ovarian carcinoma cell line and the PAC-resistant 2008/P200A cell line (grown in 200 ng/mL of PAC) were kindly provided by Dr. John Allen (Centenary Institute, Sydney, Australia). Cells were grown in Dulbecco's modified Eagle's medium (DMEM; Life Technologies) with 10% (v/v) fetal calf serum (Sigma-Aldrich, St. Louis, Mo.) and supplemented with the following additions from Life Technologies: 1% (v/v) sodium pyruvate, 1% (v/v) non-essential amino acids, 100 U/mL penicillin, 100 μg/mL streptomycin, 2 mM L-glutamine and 0.28 μg/mL fungizone. The cells were then incubated at 37° C. in a humidified atmosphere of 5% CO2 and 95% air.
# (§1) The effect of anti-cancer agents on cellular proliferation was examined using the MTT [3-(4,5-dimethylthiazol-2-yl)-2,5-diphenyl tetrazolium] method. In this assay, 3×10^3 cells/well were seeded in 96-well plates in 100 μL of media. The next day, serially diluted drugs of interest were added. […] The cells were incubated at 37° C. in a humidified atmosphere containing 5% CO2 and 95% air for 72 h. After this incubation, 10 μL of MIT (5 mg/mL) was added to each well and the incubation continued at 37° C. for 2 h. After solubilization of the cells with 100 μL of 10% SDS-50% isobutanol in 10 mM HCl, the plates were read at 570 nm using a scanning multi-well spectrophotometer (Victor™ Multilabel Counter plate reader; Perkin Elmer, Australia). Results were analyzed to calculate the concentration of chelator or complex necessary to reduce the absorbance to 50% (IC50) of the control.
# [2] = test system: KBV1 cells; assay: MTT cytotoxicity after transient knockdown of Pgp (MDR1 siRNA) in KBV1 cells; assay type: cell-based, Human; conditions: Pgp siRNA vs. Scr siRNA, 72 h
# Description: as §1
# For all siRNA treatments against MDR1 (MDR1-siRNA; Cat #: 4123, Life Technologies), a siRNAlipofectamine mixture (50 nM MDR1 siRNA and 1/400 lipofectamine 2000) was added to the cells (at 30% confluency) and incubated for 72 h/37° C. prior to further experimentation. The effectiveness of Pgp knockdown was confirmed using western blot and also assessing DOX cytotoxicity via the MTT assay. As a control, scrambled siRNA (Scr siRNA; Life Technologies) was used at the same concentration as MDR1 siRNA.
# [3] = test system: Pgp-expressing KBV1 cells; assay: Uptake of radio-labeled drug, KBV1 cells; assay type: cell-based, Human
# Description: Cells were then washed on ice three times with ice-cold PBS and collected for analysis. Drug uptake was calculated as the number of drug molecules/cell. […] For studies using lysosomotropic agents, cells were pre-incubated with NH4Cl (5 mM), CLQ (100 μM) or MA (100 μM) for 30 min/37° C. prior to ^14C-Dp44mT uptake. […] For efflux assays, the same labeling procedure was conducted as in the uptake assay. […] After this procedure, the overlying media was removed using a Pasteur pipette and then placed in a counting vial. The cells were removed from the plate in 1 mL of PBS and then dispensed into a separate counting vial.
# [4] = test system: non-Pgp expressing KB31 cells; assay: Uptake of radio-labeled drug, KB31 cells; assay type: cell-based, Human
# Description: (§2) For the uptake assay, each 35 mm culture dish containing 5×10^5 cells was incubated with ^14C-doxorubicin, ^3H-vinblastine or ^14C-Dp44mT (all at 1 μCi) for 30 min/37° C. Cells were then washed on ice three times with ice-cold PBS and collected for analysis. Drug uptake was calculated as the number of drug molecules/cell. […] For studies using lysosomotropic agents, cells were pre-incubated with NH4Cl (5 mM), CLQ (100 μM) or MA (100 μM) for 30 min/37° C. prior to ^14C-Dp44mT uptake. […] For efflux assays, the same labeling procedure was conducted as in the uptake assay. […] After this procedure, the overlying media was removed using a Pasteur pipette and then placed in a counting vial. The cells were removed from the plate in 1 mL of PBS and then dispensed into a separate counting vial. The radiolabeled-drug efflux was calculated as a percentage of the total drug uptake by the cells found at zero time.
# [5] = test system: 2008/P200A cells; assay: Uptake of 14C-Dp44mT, 2008/P200A cells; assay type: cell-based; conditions: 2008/P200 cells, NH4Cl, MA or CLQ pre-incubation
# Description: as §2
# [6] = test system: Pgp over-expressing KBV1 cells; assay: Efflux of 14C-Dp44mT, KBV1 cells; assay type: cell-based, Human
# Description: as §2
# [7] = Redox studies: oxidation of H2DCF, cell-free; conditions: acetate buffer pH 5, cysteine, H2O2, over 12 min
# Description: These studies were conducted in an acetate buffer (150 mM; pH 5) containing cysteine (100 μM) to mimic lysosomal conditions. In these experiments, hydrogen peroxide (100 μM) was added to initiate ROS generation.
structure (smiles),measurement,setting,value
"CN(C)C(=S)NN=C(c1ccccn1)c1ccccn1 [Dp44mT, di-2-pyridylketone 4,4-dimethyl-3-thiosemicarbazone]",change of cytotoxicity in presence of Pgp inhibitors Val or Ela,"[1]; 2008/P200A cells, Val 1 μM, Ela 0.1 μM",significantly (p<0.001) decreased sensitivity
same,sensitivity of 2008/P200A cells compared to 2008 cells,[1]; 72 h,significantly (p<0.001) increased sensitivity
same,increase of IC50 by knockdown of Pgp,[2],10 fold
same,accumulation after pre-treatment with lysosomotropic agents,"[3]; KBV1 cells, NH4Cl, MA or CLQ pre-incubation 30 min/37° C.",significantly (p<0.001) decreased
same,effect of Pgp inhibitors Val and Ela on uptake,"[3]; KBV1 cells, Val 1 μM or Ela 0.1 μM pre-incubation, versus control",significantly (p<0.001) increased the uptake
same,cellular accumulation in KBV1 cells relative to KB31 cells,"[3]; control groups, 1 μCi",significantly (p<0.001) less
same,accumulation after pre-treatment with lysosomotropic agents,"[4]; NH4Cl, MA or CLQ pre-incubation",did not significantly affect
same,effect of Pgp inhibitors Val and Ela on uptake,"[4]; Val 1 μM or Ela 0.1 μM pre-incubation, versus control",did not significantly alter radiolabel uptake
same,accumulation after pre-treatment with lysosomotropic agents,[5],significantly (p<0.001) decreased
same,efflux in KBV1 cells in comparison to KB31 cells,[6]; 1-10 min incubation,significantly (p<0.001) higher efflux
same,effect of Val and Ela on efflux,"[6]; KBV1 cells, Val 1 μM or Ela 0.1 μM",significantly (p<0.01-0.001) suppressed efflux
same,redox activity (H2DCF oxidation),[7],no activity
